Experimental data: US6649605B2, “Treatment of tension-type headaches with NMDA receptor antagonists” (Head Explorer A/S, priority 1996, dated 2003)
“Also recorded” adds a separate entry of the source.

What was measured:
[1] = tested on: patients with chronic tension-type headache; assay: Open labeled pilot study of prophylactic Dextromethorphan; format: in vivo, human
Description: Five patients with a diagnosis of chronic tension-type headache according to the International Headache Society (Headache Classification Committee 1988) were recruited from the outpatient headache clinic at Glostrup Hospital. There were 2 males and 3 females, and the mean age was 45.4 years (range 39-48). The mean life time duration of chronic tension-type headache was 12.2 years (range 4-25). One patient had coexisting but infrequent migraine. Exclusion criteria were; daily major medication (including prophylactic headache therapy); abuse of analgesics or alcohol; serious somatic or psychiatric diseases including depression.
Using an open labeled design, patients fulfilled a diagnostic headache diary during at least 4 weeks run-in period to ensure the diagnostic criteria. Thereafter, the patients received Dextromethorphan (Dexofan®) tablets at 30 mg each, three times per day. The treatment period lasted 4 weeks, and during this period patients were asked to continue Faith headache diaries: and record headache intensity, frequency, duration, any medication taken and any possible adverse events. At a follow up visit at day 29-32, diaries were collected and possible adverse events and evaluation of the treatment were recorded. Due to the restricted number of patients, no statistical analysis were done. The efficacy parameters were headache intensity, frequency and duration, and intake of simple analgesics. Mean values from the run-in period were compared to those obtained during the treatment period.

[2] = tested on: human volunteers; conditions: cited from earlier work
[3] = tested on: tension-type headache; conditions: literature reports; cited from earlier work
[4] = tested on: patients with chronic tension-type headache; assay: Open labeled pilot study of prophylactic Gabapentin; format: in vivo, human
Description: Three patients with a diagnosis of chronic tension-type headache according to the International Headache society (Headache Classification Committee 1988) were recruited from the outpatient headache clinic at Glostrup Hospital. The patients were males with a mean age of 42 years (range. 35-49). The mean life time duration of chronic tension-type headache was 16 years (range 7-21). […] Exclusion criteria were: daily major medication (including prophylactic headache therapy); abuse of analgesics or alcohol; serious somatic or psychiatric diseases including depression.
Using an open labeled design, patients fulfilled a diagnostic headache diary during at least 4 weeks run-in period to ensure the diagnostic criteria. Thereafter, the patients received Gabapentin (Neurontin®) tablets, initially 300 mg (one tablet) per day on day one, increasing with 300 mg (1 tablet) per day to 900 mg (3 tablets) on day 3. The treatment period lasted […], and during this period patients were asked to continue with headache diaries, and record headache intensity, frequency, duration, any medication taken and any possible adverse events. At a follow, up visit at day 29-32, diaries were collected and any adverse events and evaluation of the treatment were recorded. Duo to the low number of patients, no statistical analysis were done. The primary efficacy parameters were headache intensity frequency and duration, and the mean values from the run-in period were compared to those obtained during the treatment period, […]

[5] = tested on: GABA A; conditions: cited from earlier work
[6] = tested on: alpha-2-subunit of a calcium channel; conditions: cited from earlier work
[7] = target: GABA B (Homo sapiens, UniProt Q9UBS5); conditions: cited from earlier work
[8] = tested on: migraine; conditions: literature reports; cited from earlier work
[9] = 0-10 VAS intensity scale, during active treatment, mean
[10] = 0-10 VAS intensity scale, run-in period, mean
[11] = open labeled, no statistical analysis

GABA B, sequence (Q9UBS5 15-961 limits assumed): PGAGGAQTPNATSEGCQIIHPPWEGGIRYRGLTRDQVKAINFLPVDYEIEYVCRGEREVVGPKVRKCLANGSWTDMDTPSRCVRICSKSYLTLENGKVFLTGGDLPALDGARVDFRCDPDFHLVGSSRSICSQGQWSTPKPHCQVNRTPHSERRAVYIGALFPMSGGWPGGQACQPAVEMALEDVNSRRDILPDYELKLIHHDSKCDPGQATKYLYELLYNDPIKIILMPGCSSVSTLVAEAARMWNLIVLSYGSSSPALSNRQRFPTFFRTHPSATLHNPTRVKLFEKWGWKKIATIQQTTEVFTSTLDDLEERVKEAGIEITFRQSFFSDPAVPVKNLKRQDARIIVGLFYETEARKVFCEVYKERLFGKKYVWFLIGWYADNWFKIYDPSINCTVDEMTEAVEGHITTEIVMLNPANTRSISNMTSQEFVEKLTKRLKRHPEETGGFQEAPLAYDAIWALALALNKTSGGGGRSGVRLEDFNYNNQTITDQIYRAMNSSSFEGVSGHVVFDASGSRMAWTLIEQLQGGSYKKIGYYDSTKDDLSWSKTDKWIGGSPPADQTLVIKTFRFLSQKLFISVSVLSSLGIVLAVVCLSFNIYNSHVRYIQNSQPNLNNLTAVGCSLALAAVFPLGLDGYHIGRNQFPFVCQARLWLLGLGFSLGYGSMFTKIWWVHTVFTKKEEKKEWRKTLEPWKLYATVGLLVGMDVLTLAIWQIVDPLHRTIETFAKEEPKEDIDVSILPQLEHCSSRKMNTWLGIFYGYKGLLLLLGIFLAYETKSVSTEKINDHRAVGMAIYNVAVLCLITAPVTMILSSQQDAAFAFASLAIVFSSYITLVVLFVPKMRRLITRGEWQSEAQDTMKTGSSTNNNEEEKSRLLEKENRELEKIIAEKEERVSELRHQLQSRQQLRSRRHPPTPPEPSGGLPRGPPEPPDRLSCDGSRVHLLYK
GABA B, sequence (O75899 42-941 partner): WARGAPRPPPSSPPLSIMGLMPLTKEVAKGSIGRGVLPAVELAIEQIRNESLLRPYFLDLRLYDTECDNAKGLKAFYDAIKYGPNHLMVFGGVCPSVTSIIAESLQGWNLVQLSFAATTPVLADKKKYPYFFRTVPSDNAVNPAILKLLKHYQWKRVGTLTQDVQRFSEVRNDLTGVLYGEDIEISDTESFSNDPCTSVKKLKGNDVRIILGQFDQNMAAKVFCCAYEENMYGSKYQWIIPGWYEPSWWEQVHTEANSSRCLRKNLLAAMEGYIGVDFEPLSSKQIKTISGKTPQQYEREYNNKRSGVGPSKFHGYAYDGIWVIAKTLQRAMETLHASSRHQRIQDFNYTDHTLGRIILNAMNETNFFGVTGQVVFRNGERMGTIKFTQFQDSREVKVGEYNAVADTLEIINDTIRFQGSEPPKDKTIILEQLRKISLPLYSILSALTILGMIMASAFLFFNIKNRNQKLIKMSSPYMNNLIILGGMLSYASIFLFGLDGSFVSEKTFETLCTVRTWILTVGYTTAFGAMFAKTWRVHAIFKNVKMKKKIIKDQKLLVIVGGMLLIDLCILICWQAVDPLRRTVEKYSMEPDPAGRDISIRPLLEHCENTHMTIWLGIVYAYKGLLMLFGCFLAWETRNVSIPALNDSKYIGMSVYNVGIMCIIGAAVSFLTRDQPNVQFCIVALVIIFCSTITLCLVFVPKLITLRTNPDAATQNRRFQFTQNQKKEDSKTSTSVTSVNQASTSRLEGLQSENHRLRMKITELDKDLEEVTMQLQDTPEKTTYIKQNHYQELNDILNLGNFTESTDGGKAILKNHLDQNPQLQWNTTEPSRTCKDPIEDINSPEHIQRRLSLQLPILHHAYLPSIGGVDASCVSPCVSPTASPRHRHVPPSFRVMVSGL

SMILES: COc1ccc2c(c1)[C@]13CCCC[C@@H]1[C@H](C2)N(C)CC3 [Dextromethorphan]
- Headache intensity, active treatment [1, 9]: 3.6
- Headache intensity, run-in period [1, 10]: 4.4
- Effect in the individual patients ([1]; 5 patients): Two patients reported a marked effect with considerable relief of headache intensity and duration within very few days of treatment; also recorded: one patient had a slight relief of headache intensity; also recorded: two patients reported no effect at all
- Side effects ([1]; 5 patients): Four patients reported no side effects; also recorded: marked side effects with sedation was reported in one patient
- Frequency of headache, active treatment ([1]; active treatment): 27 days per 4 weeks period
- Mean intake of analgesics, active treatment ([1]; active treatment): 0.5 dose per day
- Overall prophylactic effect [1, 11]: positive prophylactic effect
- Frequency of headache, run-in period ([1]; run-in): 28 days per 4 weeks period
- Mean intake of analgesics, run-in period ([1]; run-in period): 1.8 dose per day
- Decrease of frequency of headache ([1]; treatment vs run-in period): 4%
- Decrease of intake of analgesics ([1]; treatment vs run-in period): 72%
- Reduction of duration of the individual headache episode ([1]; treatment vs run-in period): 11%
- Reduction of headache intensity ([1]; treatment vs run-in period, 30 mg three times per day, 4 weeks, 5 patients): 18%
- After sensation induced by repetitive stimuli [2]: reduce the after sensation

SMILES: CCOC(=O)Nc1ccc(NCc2ccc(F)cc2)nc1N [Flupirtin, ethyl 2-amino-6-(4-fluorobenylamino)-3-pyridylcarbamate]
- Effect in tension-type headache [3]: positive effects

SMILES: NCC1(CC(=O)O)CCCCC1 [Gabapentin]
- Headache intensity, active treatment [4, 9]: 3.6
- Headache intensity, run-in period [4, 10]: 5.5
- Effect in the individual patients ([4]; 3 patients): One patient had excellent effect of Gabapentin with complete relief of the headache after 2 days treatment; also recorded: another patient had a moderate effect on headache intensity and frequency; also recorded: the third patient had no significant effect on any of efficacy parameters
- Side effects ([4]; 3 patients): Those two subjects with good or excellent effect reported no side effects; also recorded: sedation, vertigo and slight nausea
- Mean daily intake of analgesics, active treatment ([4]; active treatment): 0.3 dose per day
- Frequency of headache, active treatment ([4]; active treatment period): 13 days per 4 weeks
- Overall prophylactic effect [4, 11]: positive prophylactic effect
- Frequency of headache, run-in period ([4]; run-in period): 23.5 days per 4 weeks
- Mean daily intake of analgesics, run-in period ([4]; run-in period): 1.1 dose per day
- Decrease of frequency of headache ([4]; treatment vs run-in period): 45%
- Decrease of mean daily intake of analgesics ([4]; treatment vs run-in period): 72%
- Reduction of duration of the individual headache episode ([4]; treatment vs run-in period): 8%
- Decrease of headache intensity ([4]; treatment vs run-in period, up to 900 mg per day, 3 patients): 35%
- Affinity for GABA A [5]: fail to show affinity
- Binding affinity to the alpha-2-subunit of a calcium channel [6]: showed binding affinity
- Affinity for GABA B [7]: fail to show affinity

SMILES: CNS(=O)(=O)Cc1ccc2[nH]cc(CCN(C)C)c2c1 [sumatriptan]
- Effect in tension-type headache [3]: not effective to a clinically relevant extent
- Effect in migraine [8]: highly effective
